“And” between values parts separate entries of the source, which are not always exact repeats. Equal values may be shown once.
Key:
[1] = test system: immortalized human microglia; experiment: ac-S565 COX2 in human microglia (western blot, immunofluorescence, Supplementary Fig 6b,c); assay type: cell-based; design: ac-S565 COX2 (western blot): scale not given here; details: for ac-S565 COX2 (western blot): sFig 6b
Protocol: To confirm the generation and roles of N-AS in neurons, cells from E18 C57BL/6 mice were prepared as previously described. Cortices were dissected and then dissociated followed by incubation in papain (Worthington) at 37 °C for 15 min. Neurons were plated on poly-L-lysine-coated coverslips with neuronal culture medium, serum-free Neurobasal medium (Gibco) containing 2% B27 supplements (Gibco), 1 mM Glutamax supplement (Gibco), and 100 U ml^−1 streptomycin/ 100 U ml^−1 penicillin (Gibco) at 37 °C in a humidified atmosphere of 5% CO2. Aβ 1–42 (10 μM, 24 h, Invitrogen, 03112) was exposed to neurons and the cells were analyzed for the generation and roles of N-AS. Primary astrocyte cultures were prepared from C57BL/6 mice as described previously. In brief, after removal of the meninges, postnatal day 7 (P7) mouse brain tissues were minced and incubated in a rocking water bath at 37 °C for 30 min in the presence of 0.25% trypsin-EDTA (Sigma-Aldrich). Enzyme-digested dissociated cells were triturated with astrocyte-specific medium (DMEM/F12 containing 10% FBS and 1% penicillin-streptomycin) and centrifuged at 155×g for 8 min. The pellet was resuspended in astrocyte-specific medium and passed through a 40-μm cell strainer. The filtrate was allowed pre-adherence for 30 min to remove any contamination from fibroblasts before being seeded in dishes and the addition of astrocyte-specific medium. To split the cells, Ara-C was added to the dishes and they were then placed in a heated shaker for 6–7 h. The medium was removed from the dishes, and trypsin-EDTA was added to the dish and incubated at 37 °C for 5–10 min. After centrifugation at 155×g for 8 min, the supernatant was removed, and the astrocytes were maintained in culture by feeding […] with astrocyte-specific medium. Primary microglia cultures were prepared from C57BL/6 mice as described previously. In brief, the cortices of 2-months-old mice were minced in Hibernate A (Gibco)/B27 supplements (Gibco) medium and dissociated using papain (Worthington) solution. After tissue trituration, cells were separated by Optiprep (Sigma-Aldrich) density gradient centrifugation. Microglia were plated with microglia-specific medium (DMEM/F12 containing 10% FBS and 1% penicillin-streptomycin). The immortalized human microglia (Applied Biologics Materials, T0251) were cultured in PriGrow III (Applied Biologics Materials, TM003) (supplemented with 10% FBS and 1% penicillin-streptomycin) at 37 °C in a humidified atmosphere of 5% CO2. […] The human microglia treated with Aβ 1–42 and/or zileuton was incubated with N-AS (2.5 μM, 2 h, Sigma-Aldrich, 01912), and were analyzed for the generation and roles of N-AS.
Thioflavin S (Sigma-Aldrich) staining was carried out according to previously described procedures. We used 6E10 (mouse, 1:100, Signet, SIG39300), anti-20G10 (mouse, 1:1000, provided by D. R. Howlett, GlaxoSmithKline, Harlow, Essex, UK) for Aβ42, anti-G30 (rabbit, 1:1000, provided by D. R. Howlett) for Aβ40, SMA (mouse, 1:400, Sigma-Aldrich, A2547), AT8 (mouse, 1:500, Thermo Fisher Scientific, MN1020), Caspase-3 (mouse, 1:200, Novus Biologicals, NB100-56708), ac-S565 (rabbit, 1:100), COX2 (mouse, 1:250, Thermo Fisher Scientific, 35-8200), Iba1 (rabbit, 1:500, Wako, 019-19941 and goat, Abcam, ab5076), NeuN (mouse, 1:500, Millipore, MAB177), GFAP (rabbit, 1:500, Dako, N1506 and chicken, 1:500, Abcam, ab4674), and Lamp1 (mouse, 1:200, Abcam, ab24170). The sections were analyzed with a laser-scanning confocal microscope (FV3000; Olympus) or with a BX51 microscope (Olympus). MetaMorph software (Molecular Devices) was used to quantification. Three-dimensional reconstruction of microglia was recorded and analyzed using IMARIS software (Bitplane)[11]. […]

[2] = test system: APP/PS1 mice; experiment: COX2 mRNA and protein in microglia of mice treated with N-AS or aspirin (Supplementary Fig 7p,q); assay type: in vivo, mouse; details: for COX2 mRNA in microglia: APP/PS1 mice treated, sFig 7p
Excerpt: Adult neurons and microglia were isolated from the mice brain as previously described. In brief, the cortex of WT (1, 3, 5, or 9-months-old), APP/PS1 (1, 3, 5, or 9-months-old), APP/PS1 treated with N-AS (9-months-old) or APP/PS1 treated with aspirin (9-months-old) mice were minced in Hibernate A (Gibco)/B27 (Invitrogen) medium and dissociated using papain (Worthington) solution. After tissue trituration, cells were separated by Optiprep (Sigma-Aldrich) density gradient centrifugation.
Samples were lysed in RIPA buffer (Cell signaling Technologies), then subjected to SDS-PAGE and transferred to a nitrocellulose membrane. Membranes were blocked with 5% milk, incubated with primary antibody and then incubated with the appropriate horseradish peroxidase-conjugated secondary antibody. […] We performed densitometric quantification using the ImageJ software (National Institutes of Health). Images have been cropped for presentation.
Transgenic mouse lines over-expressing the hAPP695swe (APP) and presenilin-1M146V (PS1) mutations were originated from GlaxoSmithKline (Harlow, UK)[32] and maintained as described previously. […] Because APP/PS1 and 5xFAD mice show sex differences in disease progression, we used only male mice. […] Block randomization method was used to allocate the animals to experimental groups. To eliminate the bias, we were blinded in experimental progress such as data collection and data analysis. […] All protocols were approved by the Kyungpook National University Institutional Animal Care and Use Committee.
For total RNA extraction from the microglia derived from WT, APP/PS1, APP/PS1 mice treated with N-AS, and APP/PS1 mice treated with aspirin, the cells were isolated from the cortex of WT, APP/PS1, APP/PS1 mice treated with N-AS, or aspirin using the methods described above. […] Quantitative real-time PCR was performed using a Corbett research RG-6000 real-time PCR instrument. Primers are described in Supplementary Table 5.

| SMILES | ac-S565 COX2 (western blot) ([1]; human microglia, Ab 50mM +) | COX2 mRNA in microglia [2] | mRNA and protein levels of COX2 ([2]; N-AS-treated vs APP/PS1) | S565 acetylation of COX2, in words ([1]; Aβ-affected human microglia + N-AS) | ac-S565 COX2 (immunofluorescence) ([1]; human microglia, Ab 50mM +, sFig 6c) | ac-S565 COX2 (western blot) ([1]; human microglia, Ab 50mM -) |
| --- | --- | --- | --- | --- | --- | --- |
| CC(=O)SCCNC(=O)CCNC(=O)[C@H](O)C(C)(C)COP(=O)(O)OP(=O)(O)OC[C@H]1O[C@@H](n2cnc3c(N)ncnc32)[C@H](O)[C@@H]1OP(=O)(O)O [Acetyl-CoA, acetyl-CoA] | 1.441 and 1.037 and 1.136 and 1.4813 and 1.401 and 1.309 |  |  |  |  |  |
| CC(=O)Oc1ccccc1C(=O)O [Aspirin, acetylsalicylic acid, reference compound] |  | 0.57 and 0.65 and 0.68 and 0.49 and 0.61 |  |  |  |  |
| CCCCCCCCCCCCC/C=C/[C@@H](O)[C@H](CO)NC(C)=O [N-AS, N-((2S,3R,E)-1,3-Dihydroxyoctadec-4-en-2-yl)acetamide] | 1.839 and 1.211 and 1.367 and 1.737 and 1.941 and 1.552 | 0.91 and 0.92 and 1.07 and 1.22 and 1 | did not vary | restored | 2.003 and 2.188 and 1.708 and 1.496 and 1.357 and 1.768 | 1.105 and 1.597 and 1.621 and 1.1016 and 1.489 and 0.9364 |
